In patent publication US8415342B2, “Besifloxacin ophthalmic composition for the treatment or control of infection” (Bausch & Lomb Incorporated, priority 2008, dated 2013):
Values joined by “and” are separate entries in the source; they are usually repeats but may differ in a detail not shown here. Identical values can stand only once.

Assays:
S. pneumoniae = experiment: MIC and MBC:MIC ratio, recent ocular isolates; format: cell-based; settings: S. pneumoniae (N = 35); for MIC50 / MIC90: Streptococcus pneumoniae
S. epidermidis = experiment: MIC and MBC:MIC ratio, recent ocular isolates; format: cell-based; settings: S. epidermidis (N = 15); for MIC50 / MIC90: Staphylococcus epidermidis
Excerpt: (§1) The success of in vivo antimicrobial action depends to a large extent on the host's defense mechanisms, which ultimately sequester and kill the microorganisms that have been reduced by the bacteriostatic/bactericidal action of the antibacterial agent. Thus, it is also of interest to profile the bactericidal activity of antimicrobial agents. The assessment of in vitro bactericidal activity can be accomplished in multiple ways, for example, the time-kill method or the determination of the minimum bactericidal concentration (MBC). […] Bactericidal agents are characterized by low MBC:MIC ratios.

H. influenzae = experiment: MIC and MBC:MIC ratio, recent ocular isolates; format: cell-based; settings: H. influenzae (N = 40); for MIC50 / MIC90: Haemophilus influenzae
Excerpt: as §1

S. pneumoniae DNA gyrase = S. pneumoniae DNA gyrase (Streptococcus pneumoniae serotype 4, UniProt P0A4L9+P72524); experiment: Cleavable complex stimulation (CC25), DNA gyrase; format: biochemical; settings: S. pneumoniae enzymes; concentration that produces 25% linearization of the DNA
bacterial conjunctivitis [1] = experiment: Study 373: besifloxacin ophthalmic suspension vs vehicle, TID 5 days; settings: N = 60; for Clinical Resolution (2 indices), Resolution / Clinical Resolution (3 indices), No / Clinical Resolution (3 indices), Yes / Microbial Eradication, No / Microbial Eradication, Yes: ITT culture confirmed; for Clinical Resolution (2 indices), Non-resolution: missing or discontinued imputed as non-resolution
[2] = Systemic exposure after topical ocular administration to humans; settings: human, in vivo, topical or ocular; following topical administration to humans
Excerpt: Topical ophthalmic use of besifloxacin is not expected to elicit any systemic effects.

bacterial conjunctivitis [3] = experiment: Study 434: besifloxacin ophthalmic suspension vs Vigamox, TID 5 days; format: in vivo, human; settings: for Clinical Resolution (2 indices), No / Clinical Resolution (2 indices), Yes: mITT culture-confirmed as treated; for Microbial Eradication, No / Microbial Eradication, Yes: missing or discontinued imputed as no, as treated
E. coli DNA gyrase = E. coli DNA gyrase (Escherichia coli, UniProt P0AES4+P0AES6); experiment: Catalytic inhibition of purified DNA gyrase; format: biochemical
[4] = system: S. aureus, S. pneumoniae, and H. influenzae; experiment: Time-kill studies; format: cell-based; settings: S. pneumoniae, and H. influenzae (data not shown)
Excerpt: as §1

[5] = molecular target: T1, S. pneumoniae topoisomerase IV (Streptococcus pneumoniae serotype 4, UniProt P72525+Q59961); experiment: biochemical; format: biochemical
T1 sequence (P72525 1-823): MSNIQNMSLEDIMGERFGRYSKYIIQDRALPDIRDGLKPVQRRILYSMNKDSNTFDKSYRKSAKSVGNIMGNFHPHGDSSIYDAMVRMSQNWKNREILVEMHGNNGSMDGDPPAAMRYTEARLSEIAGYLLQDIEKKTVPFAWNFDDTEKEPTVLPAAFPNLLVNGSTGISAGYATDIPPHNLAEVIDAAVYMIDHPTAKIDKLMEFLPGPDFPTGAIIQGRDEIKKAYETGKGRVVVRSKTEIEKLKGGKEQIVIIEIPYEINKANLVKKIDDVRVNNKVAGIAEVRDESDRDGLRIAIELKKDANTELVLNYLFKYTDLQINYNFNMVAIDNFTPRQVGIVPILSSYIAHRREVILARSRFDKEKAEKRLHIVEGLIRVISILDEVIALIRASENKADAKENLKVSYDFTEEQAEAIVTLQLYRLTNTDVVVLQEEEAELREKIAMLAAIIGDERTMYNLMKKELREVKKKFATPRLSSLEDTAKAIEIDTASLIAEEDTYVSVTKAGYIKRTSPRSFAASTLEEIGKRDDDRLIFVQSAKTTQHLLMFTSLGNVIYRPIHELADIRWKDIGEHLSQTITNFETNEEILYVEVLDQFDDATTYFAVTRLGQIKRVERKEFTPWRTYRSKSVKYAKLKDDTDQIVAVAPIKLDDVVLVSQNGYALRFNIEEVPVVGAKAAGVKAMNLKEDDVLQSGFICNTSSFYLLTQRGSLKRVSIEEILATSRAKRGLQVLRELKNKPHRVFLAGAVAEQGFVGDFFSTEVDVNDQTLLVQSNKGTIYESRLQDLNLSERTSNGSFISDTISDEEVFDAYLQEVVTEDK
T1 sequence (Q59961 1-647): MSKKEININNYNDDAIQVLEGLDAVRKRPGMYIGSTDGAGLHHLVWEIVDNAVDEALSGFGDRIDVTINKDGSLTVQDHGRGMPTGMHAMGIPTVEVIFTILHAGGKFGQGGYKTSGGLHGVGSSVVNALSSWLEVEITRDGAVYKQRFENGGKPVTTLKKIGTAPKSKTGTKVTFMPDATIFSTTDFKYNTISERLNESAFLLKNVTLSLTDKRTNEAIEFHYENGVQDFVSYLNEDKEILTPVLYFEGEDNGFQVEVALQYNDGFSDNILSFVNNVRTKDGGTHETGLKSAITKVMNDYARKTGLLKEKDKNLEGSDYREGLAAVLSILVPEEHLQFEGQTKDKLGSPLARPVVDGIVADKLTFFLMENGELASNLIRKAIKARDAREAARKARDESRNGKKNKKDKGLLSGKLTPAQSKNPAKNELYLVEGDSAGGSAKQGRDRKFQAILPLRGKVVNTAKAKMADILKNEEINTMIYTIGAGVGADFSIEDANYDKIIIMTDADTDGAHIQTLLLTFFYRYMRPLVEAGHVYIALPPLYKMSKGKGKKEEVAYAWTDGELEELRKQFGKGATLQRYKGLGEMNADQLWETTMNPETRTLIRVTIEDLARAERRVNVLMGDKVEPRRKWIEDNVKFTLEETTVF

[6] = Visit 3 (Day 8 or 9), primary endpoint
[7] = Visit 2 (Day 5 ± 1), primary endpoint

E. coli DNA gyrase, sequence (P0AES4 whole entry, one chain of several): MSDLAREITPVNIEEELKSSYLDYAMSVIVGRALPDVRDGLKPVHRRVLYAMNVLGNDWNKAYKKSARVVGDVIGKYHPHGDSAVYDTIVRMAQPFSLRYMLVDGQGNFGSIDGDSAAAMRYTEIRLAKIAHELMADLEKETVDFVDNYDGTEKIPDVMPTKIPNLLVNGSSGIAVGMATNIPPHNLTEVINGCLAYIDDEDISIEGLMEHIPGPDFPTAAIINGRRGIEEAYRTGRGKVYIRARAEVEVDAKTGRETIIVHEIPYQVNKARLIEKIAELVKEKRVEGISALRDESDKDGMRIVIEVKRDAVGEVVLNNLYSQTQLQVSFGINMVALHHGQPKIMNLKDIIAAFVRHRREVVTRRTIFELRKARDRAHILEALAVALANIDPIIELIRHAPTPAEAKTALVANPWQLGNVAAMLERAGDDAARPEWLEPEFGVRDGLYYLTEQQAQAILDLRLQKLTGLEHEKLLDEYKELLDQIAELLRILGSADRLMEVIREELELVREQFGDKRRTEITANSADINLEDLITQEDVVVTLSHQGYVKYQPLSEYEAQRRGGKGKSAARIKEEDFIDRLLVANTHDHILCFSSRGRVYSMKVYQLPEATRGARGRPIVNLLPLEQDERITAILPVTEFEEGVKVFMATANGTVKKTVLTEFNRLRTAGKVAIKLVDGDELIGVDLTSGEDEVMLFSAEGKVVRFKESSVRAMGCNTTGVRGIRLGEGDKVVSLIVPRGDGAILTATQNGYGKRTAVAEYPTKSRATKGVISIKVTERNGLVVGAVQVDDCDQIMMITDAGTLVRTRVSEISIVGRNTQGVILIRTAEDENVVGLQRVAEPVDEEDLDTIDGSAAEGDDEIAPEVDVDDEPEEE
S. pneumoniae DNA gyrase, sequence (P72524 whole entry): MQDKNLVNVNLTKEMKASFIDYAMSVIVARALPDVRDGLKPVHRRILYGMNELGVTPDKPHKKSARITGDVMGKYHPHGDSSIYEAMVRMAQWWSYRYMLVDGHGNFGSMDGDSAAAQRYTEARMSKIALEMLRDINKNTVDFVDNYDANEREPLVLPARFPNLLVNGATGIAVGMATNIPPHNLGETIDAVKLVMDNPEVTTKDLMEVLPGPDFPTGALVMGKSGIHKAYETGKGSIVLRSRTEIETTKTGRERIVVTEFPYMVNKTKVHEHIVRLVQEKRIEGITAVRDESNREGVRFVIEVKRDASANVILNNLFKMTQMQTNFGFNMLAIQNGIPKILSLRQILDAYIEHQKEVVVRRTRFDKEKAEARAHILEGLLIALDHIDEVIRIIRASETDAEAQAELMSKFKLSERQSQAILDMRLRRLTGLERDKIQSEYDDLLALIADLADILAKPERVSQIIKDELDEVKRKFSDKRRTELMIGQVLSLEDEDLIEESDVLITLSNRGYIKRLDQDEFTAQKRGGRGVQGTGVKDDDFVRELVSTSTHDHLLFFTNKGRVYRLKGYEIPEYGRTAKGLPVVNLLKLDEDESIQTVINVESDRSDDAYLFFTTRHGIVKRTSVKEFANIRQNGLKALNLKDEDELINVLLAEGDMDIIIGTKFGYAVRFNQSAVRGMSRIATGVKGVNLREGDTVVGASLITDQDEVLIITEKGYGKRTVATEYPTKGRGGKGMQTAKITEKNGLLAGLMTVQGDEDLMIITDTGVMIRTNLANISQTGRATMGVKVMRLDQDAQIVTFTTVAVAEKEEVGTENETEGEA
S. pneumoniae DNA gyrase, sequence (P0A4L9 whole entry): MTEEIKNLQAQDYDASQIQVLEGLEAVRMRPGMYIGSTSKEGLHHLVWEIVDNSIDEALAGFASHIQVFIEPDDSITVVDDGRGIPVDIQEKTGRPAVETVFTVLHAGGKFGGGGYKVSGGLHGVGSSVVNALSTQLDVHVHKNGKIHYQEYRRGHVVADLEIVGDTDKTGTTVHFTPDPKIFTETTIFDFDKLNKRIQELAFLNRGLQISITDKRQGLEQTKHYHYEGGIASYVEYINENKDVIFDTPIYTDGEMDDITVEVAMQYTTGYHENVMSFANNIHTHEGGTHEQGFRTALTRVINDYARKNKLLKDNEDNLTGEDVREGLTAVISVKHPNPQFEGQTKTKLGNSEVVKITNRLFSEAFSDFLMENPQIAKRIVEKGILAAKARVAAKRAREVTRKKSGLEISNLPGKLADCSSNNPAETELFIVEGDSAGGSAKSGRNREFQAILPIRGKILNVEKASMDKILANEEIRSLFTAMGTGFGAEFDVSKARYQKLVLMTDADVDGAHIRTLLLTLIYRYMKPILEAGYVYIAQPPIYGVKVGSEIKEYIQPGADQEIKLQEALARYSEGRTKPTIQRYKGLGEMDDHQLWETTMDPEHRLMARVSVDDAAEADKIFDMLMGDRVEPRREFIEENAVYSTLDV

## CC[C@H]1OC(=O)[C@H](C)[C@@H](O[C@H]2C[C@@](C)(OC)[C@@H](O)[C@H](C)O2)[C@H](C)[C@@H](O[C@@H]2O[C@H](C)C[C@H](N(C)C)[C@H]2O)[C@](C)(O)C[C@@H](C)CN(C)[C@H](C)[C@@H](O)[C@]1(C)O [Azithromycin]
S. pneumoniae; recent ocular isolates
  % S (susceptible isolates, CLSI): 62.9%
  MIC50: 0.06 µg/mL
  MIC90: > 8 µg/mL
S. epidermidis; recent ocular isolates
  % S (susceptible isolates, CLSI): 26.7%
  MIC50: > 8 µg/mL
  MIC90: > 8 µg/mL
H. influenzae; recent ocular isolates
  % S (susceptible isolates, CLSI): 100.0%
  MIC Range: ≦0.004-2 μg/mL
  MIC50: 0.5 µg/mL
  MIC90: 1 µg/mL

## N[C@@H]1CCCCN(c2c(F)cc3c(=O)c(C(=O)O)cn(C4CC4)c3c2Cl)C1 [Besifloxacin, (R)-(+)-(3-amino-2,3,4,5,6,7-hexahydro-1H-azepin-1-yl)-8-chloro-1-cyclopropyl-6-fluoro-1,4,-dihydro-4-oxo-3-quinolinecarboxylic acid]
S. pneumoniae DNA gyrase
  CC25 Gyrase: 2.5 μM and 1 μg/mL
Bacterial conjunctivitis [1]; Visit 2 (Day 4 ± 1)
  Clinical Resolution (2 indices), Resolution: 20 (33.3) n (%)
  Clinical Resolution (3 indices), No: 46 (76.7) n (%)
  Clinical Resolution (3 indices), Yes: 14 (23.3) n (%)
  Microbial Eradication, No: 6 (10.0) n (%)
  Microbial Eradication, Yes: 54 (90.0) n (%)
  Clinical Resolution (2 indices), Non-resolution: 40 (66.7) n (%)
Bacterial conjunctivitis [1]; Visit 3 (Day 8 or 9)
  Clinical Resolution (2 indices), Resolution: 44 (73.3) n (%)
  Clinical Resolution (3 indices), No: 23 (38.3) n (%)
  Microbial Eradication, No: 6 (10.0) n (%)
  Clinical Resolution (2 indices), Non-resolution: 16 (26.7) n (%)
Bacterial conjunctivitis [1]; [6]
  Clinical Resolution (3 indices), Yes: 37 (61.7) n (%)
  Microbial Eradication, Yes: 54 (90.0) n (%)
[2]
  Cmax: ~0.4 ng/mL
Bacterial conjunctivitis [3]; Visit 2 (Day 5 ± 1)
  Clinical Resolution (2 indices), No: 105 (41.7) n (%)
  Microbial Eradication, No: 17 (6.7) n (%)
Bacterial conjunctivitis [3]; [7]
  Clinical Resolution (2 indices), Yes: 147 (58.3) n (%)
  Microbial Eradication, Yes: 235 (93.3) n (%)
Bacterial conjunctivitis [3]; Visit 3 (Day 8 or 9)
  Clinical Resolution (2 indices), No: 39 (15.5) n (%)
  Clinical Resolution (2 indices), Yes: 213 (84.5) n (%)
  Microbial Eradication, No: 32 (12.7) n (%)
  Microbial Eradication, Yes: 220 (87.3) n (%)
S. pneumoniae
  % of isolates with MBC:MIC ratio 1: 60.0%
  % of isolates with MBC:MIC ratio 2: 37.1%
  % of isolates with MBC:MIC ratio 4: 2.9%
  % of isolates with MBC:MIC ratio 8: 0.0%
  % of isolates with MBC:MIC ratio ≧16: 0.0%
S. pneumoniae; recent ocular isolates
  MIC Range: 0.015 to 0.5 µg/mL
  MIC50: 0.06 µg/mL
  MIC90: 0.06 µg/mL
E. coli DNA gyrase; E. coli enzymes
  IC50: 2300 nM and 2540 nM
  inhibitory concentration for gyrase lower than for topoisomerase IV: 10 fold
E. coli DNA gyrase; purified E. coli DNA gyrase and topoisomerase IV
  catalytic inhibition and cleavable complex stimulation relative to comparators: equivalent to that of the ciprofloxacin and moxifloxacin comparators
S. epidermidis
  % of isolates with MBC:MIC ratio 1: 73.3%
  % of isolates with MBC:MIC ratio 2: 20.0%
  % of isolates with MBC:MIC ratio 4: 6.7%
  % of isolates with MBC:MIC ratio 8: 0.0%
  % of isolates with MBC:MIC ratio ≧16: 0.0%
S. epidermidis; recent ocular isolates
  MIC Range: 0.015 to 4 µg/mL
  MIC50: 0.03 µg/mL
  MIC90: 4 µg/mL
H. influenzae
  % of isolates with MBC:MIC ratio 1: 42.5%
  % of isolates with MBC:MIC ratio 2: 50.0%
  % of isolates with MBC:MIC ratio 4: 7.5%
  % of isolates with MBC:MIC ratio 8: 0.0%
  % of isolates with MBC:MIC ratio ≧16: 0.0%
H. influenzae; recent ocular isolates
  MIC Range: ≦0.004-0.03 μg/mL
  MIC50: 0.015 µg/mL
  MIC90: 0.015 µg/mL
[4]
  bactericidal activity in time-kill studies: confirmed the bactericidal activity
[5]; IC50 Topo IV, S. pneumoniae enzymes
  IC50: 1000 nM and 1020 nM
[5]; S. pneumoniae topoisomerase IV
  potency relative to ciprofloxacin and moxifloxacin (catalytic inhibition and cleavable complex stimulation): 2.5- to 5.0 fold
